Measured values from patent publication US20050058600A1, “3,3'-Diindolylmethane antiandrogenic compositions” (priority 2003, published 2005).

Assays:
[1] = test system: wild-type recombinant human AR; experiment: Competitive [3H]DHT binding assay, recombinant AR protein; conditions: micromolar concentration range
GFP-AR = experiment: Fluorescence imaging of GFP-AR in transfected PC-3 cells; type: cell-based
Method: Transient Transfections with Reporters and Luciferase Assay. LNCaP and PC-3 cells were transfected, with some modifications, as previously described (20). For AR transactivation, cells were transfected with 0.1 μg of MMTV-Luc or pPSA-Luc per plate. Co-transfection experiments with pCMV-hAR or pCMV-GFP-rAR, 0.1 μg per plate was also used. For experiments involving GFP fluorescence imaging, treatments were not added until 30 h after transfection.
Fluorescence Imaging. PC-3 cells were plated on cover slips in six-well culture plates at 1.5×10^5 cells per well in 5% DCC-FBS-DMEM medium. Cells were co-transfected with pCMV-GFP-rAR and pPSA-Luc or MMTV-Luc as indicated above. Cover slips were placed on microscope slides and images were taken at 1000×.

PSA gene expression = experiment: Northern blot of endogenous PSA mRNA in LNCaP cells; type: cell-based, human
Method: RNA Extraction, mRNA Purification and Northern Hybridization. mRNA isolation and Northern blot analyses were conducted as described previously (20, 31). PSA cDNA and the cDNA probes were biotinylated using NEBlot Phototope kit (New England Biolabs, Beverly, Mass.), purified via precipitation with 3 M sodium acetate (pH 5.2) and washed with 70% ethanol. After hybridization with cDNA probes, the membrane was incubated with streptavidin then biotinylated with alkaline phosphatase followed by the Phototope-CDP-Star assay (New England Biolabs, Beverly, Mass.), and autoradiographed. The amount of mRNA was quantified by Gel Densitometer (Bio-Rad) and normalized with β-actin as an internal control.

[2] = test system: BP-induced pulmonary adenomas; conditions: mice; cited from earlier work
[3] = test system: benzo(a)pyrene (BP)-induced tumors of the forestomach; conditions: mice; cited from earlier work
[4] = test system: dimethylbenzanthracene (DMBA)-induced mammary tumors; conditions: rats; cited from earlier work
LNCaP cells = experiment: [3H]Thymidine incorporation (DNA synthesis) in LNCaP cells; type: cell-based, human; conditions: uninduced and androgen-induced (1 nM DHT) growth conditions
breast cancer cells = conditions: in culture; cited from earlier work
mutant AR of LNCaP cells = molecular target: T1, mutant AR of LNCaP cells (Homo sapiens, UniProt P10275, T878A); experiment: Competitive [3H]DHT binding assay, LNCaP cell extracts; conditions: micromolar concentration range
T1 construct: 95 μL of either LNCaP cell extracts or recombinant AR protein; endogenous in cells; host or cells: LNCaP
T1 sequence (P10275 1-920 T878A): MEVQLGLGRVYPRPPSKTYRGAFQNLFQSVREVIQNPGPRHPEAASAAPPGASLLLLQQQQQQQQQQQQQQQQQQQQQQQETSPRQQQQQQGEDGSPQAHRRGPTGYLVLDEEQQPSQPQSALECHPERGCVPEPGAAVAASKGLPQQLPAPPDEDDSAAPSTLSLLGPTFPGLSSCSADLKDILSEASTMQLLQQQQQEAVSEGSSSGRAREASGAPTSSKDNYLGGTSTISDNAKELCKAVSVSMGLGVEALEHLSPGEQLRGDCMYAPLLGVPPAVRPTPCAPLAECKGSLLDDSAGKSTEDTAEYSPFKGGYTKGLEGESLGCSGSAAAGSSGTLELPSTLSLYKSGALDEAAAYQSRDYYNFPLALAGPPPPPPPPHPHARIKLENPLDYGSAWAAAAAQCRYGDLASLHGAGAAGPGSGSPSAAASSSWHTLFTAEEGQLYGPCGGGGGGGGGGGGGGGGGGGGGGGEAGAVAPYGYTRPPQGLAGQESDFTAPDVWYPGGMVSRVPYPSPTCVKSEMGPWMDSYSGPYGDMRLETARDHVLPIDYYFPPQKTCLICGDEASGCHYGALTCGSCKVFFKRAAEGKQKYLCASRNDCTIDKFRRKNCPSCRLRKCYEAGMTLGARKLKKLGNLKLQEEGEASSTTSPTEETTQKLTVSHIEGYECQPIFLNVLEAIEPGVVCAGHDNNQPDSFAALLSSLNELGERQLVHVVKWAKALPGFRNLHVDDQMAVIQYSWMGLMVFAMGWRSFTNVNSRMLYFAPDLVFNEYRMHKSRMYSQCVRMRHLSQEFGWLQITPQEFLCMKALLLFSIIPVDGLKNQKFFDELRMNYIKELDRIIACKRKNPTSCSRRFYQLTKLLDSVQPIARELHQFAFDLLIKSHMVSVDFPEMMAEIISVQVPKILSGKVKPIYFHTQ
Method: Hormone Binding Assay. LNCaP cells were grown in 5% DCC-FBS-DMEM medium supplemented with 4.0 g/L glucose and 3.7 g/L sodium bicarbonate and harvested in HBS containing 1.5 mM EDTA by scraping with a rubber policeman. The cells were placed on ice, collected by centrifugation, washed with ice-cold TKEG buffer (20 mM Tris-HCl pH 7.4, 50 mM KCl, 1 mM EDTA, 0.1 mM PMSF, and 10% glycerol) and resuspended in 250 μL/plate homogenization buffer (50 mM Tris-HCl pH 7.4, 1.5 mM EDTA, 10 mM sodium molybdate, 2.5 mM β-mercaptoethanol, 50 mM KCl, 0.1 mM PMSF, and 10% glycerol). Cells were homogenized using a Polytron apparatus at medium speed for 1 min on ice. The homogenates were centrifuged at 50,000 rpm in 4° C. for 60 min. The supernatant solution was divided into 1.0 mL aliquots, quickly frozen in a dry-ice/ethanol bath and stored at −80° C. Protein concentration was determined by the Bradford assay using bovine serum albumin as the standard. […] Competitive ligands were added as 1.0 μL of 100× solution in DMSO. After mixing, 95 μL of either LNCaP cell extracts or recombinant AR protein (PanVera, Madison, Wis.) was added and the solutions were vortexed and incubated at room temperature for 2-3 h. […]

PSA protein = experiment: Western blot of intracellular and secreted PSA in LNCaP cells; type: cell-based, human; conditions: DHT co-treatment
Method: Analysis of Intracellular and Secreted PSA. LNCaP cells growing on 100 mm plates were treated for 24 h. Cells were lysed as previously described (20) for intracellular PSA analysis. For secreted proteins, spent medium was collected and concentrated 18-fold using Millipore Centriprep YM-10 following manufacturer's protocol (Bedford, Mass.). Protease inhibitors were added and the proteins were immunoprecipitated with 3 μg/mL monoclonal free PSA antibody (Biodesign International) for 2 h and co-immunoprecipitated overnight at 4° C. with Protein A/G agarose (Santa Cruz Biotechnology, Santa Cruz, Calif.) on a rotator. The samples were then subjected to Western blot analysis as described previously (20) using a monoclonal PSA (sc-7316) primary antibody and a goat anti-mouse-IgG-AP secondary antibody.

c1ccc2c(Cc3c[nH]c4ccccc34)c[nH]c2c1 [DIM, 3,3′-diindolylmethane]
competition with labeled DHT for binding to the AR [1]: competes with labeled DHT for binding to the AR | distribution of GFP-AR fluorescence (GFP-AR; DIM alone): predominantly cytoplasmic distribution | formation of AR foci in the nucleus (GFP-AR; DIM treatment with DHT): prevented the formation of AR foci | inhibition of AR translocation induced by DHT (GFP-AR; co-treatment with 50 μM DIM and 1 nM DHT): partially inhibited | inhibition of PSA mRNA induction by DHT (PSA gene expression; 24 h co-treatment with DIM): up to 80% | decrease in PSA mRNA levels (PSA gene expression; DIM treatment, concentration- and time-dependent): up to 70% | incidence of BP-induced pulmonary adenomas [2]: reduced the incidence | incidence of BP-induced tumors of the forestomach [3]: reduced the incidence | incidence of DMBA-induced mammary tumors [4]: reduced the incidence | inhibition of DNA synthesis (LNCaP cells): up to 90% | programmed cell death in human breast tumor cells (breast cancer cells): induced programmed cell death | proliferation of breast cancer cells (breast cancer cells): inhibit proliferation | competition with labeled DHT for binding to the AR (mutant AR of LNCaP cells): competes with labeled DHT for binding to the AR | levels of intracellular and secreted PSA protein (PSA protein): reduced levels of intracellular and secreted PSA protein to background concentrations
